According to ChEMBL document CHEMBL4330157, “Lycopodium Alkaloids: Lycoplatyrine A, an Unusual Lycodine-Piperidine Adduct from Lycopodium platyrhizoma and the Absolute Configurations of Lycoplanine D and Lycogladine H” (J Nat Prod, 2019):

Target: Acetylcholinesterase (Homo sapiens, UniProt P22303)
Assay: Inhibition of AChE (unknown origin) using acetylthiocholine as substrate preincubated for 15 mins followed by substrate addition measured every minute for 15 mins by Ellman's method

Chain of Acetylcholinesterase (P22303 whole entry): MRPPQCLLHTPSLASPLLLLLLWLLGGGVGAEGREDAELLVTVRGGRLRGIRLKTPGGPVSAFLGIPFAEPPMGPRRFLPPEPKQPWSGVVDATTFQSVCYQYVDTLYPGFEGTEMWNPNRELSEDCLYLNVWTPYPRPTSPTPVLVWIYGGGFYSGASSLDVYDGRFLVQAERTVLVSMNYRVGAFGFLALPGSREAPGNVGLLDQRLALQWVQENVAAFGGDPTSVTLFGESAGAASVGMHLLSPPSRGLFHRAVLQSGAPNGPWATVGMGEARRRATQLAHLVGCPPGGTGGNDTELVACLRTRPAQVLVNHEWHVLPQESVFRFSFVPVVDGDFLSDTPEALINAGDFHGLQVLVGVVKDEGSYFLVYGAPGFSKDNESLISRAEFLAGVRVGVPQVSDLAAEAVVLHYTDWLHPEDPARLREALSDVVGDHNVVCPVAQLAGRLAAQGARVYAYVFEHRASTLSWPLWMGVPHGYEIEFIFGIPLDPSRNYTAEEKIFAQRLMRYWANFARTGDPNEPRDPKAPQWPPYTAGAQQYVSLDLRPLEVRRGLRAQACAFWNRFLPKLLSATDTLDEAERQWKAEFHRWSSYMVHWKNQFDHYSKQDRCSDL

SMILES | IC50 [µM]
CC1C[C@H]2[C@H](O)[C@@H]3O[C@]4(C1)OC1CCN5CCCC24[C@]13C5 (stereo partly drawn) | > 30
C[C@@H]1C[C@H]2Cc3ncc(C4CCCCN4)cc3[C@]3(C1)NCCC[C@H]23 (stereo partly drawn) | > 30
C=C[C@@H]1[C@@H]2CC3=C(CCC(=O)N3)[C@@]1(N)C[C@H](C)C2 | > 30
